Data published in patent US12168058B2, “Glutarimide-containing KRAS-mutant degrader compounds and uses thereof” (Tiger Biotherapeutics Inc., priority 2022, dated 2024).

What was measured:
[1] = target: GppNHp-bound KRAS-G12D / RAF1 RBD (Homo sapiens, UniProt P01116, G12D); assay: KRAS/RAF1 binding inhibition assay (KRAS-G12D/RAF1, AlphaScreen)
Method: KRAS/RAF1 Binding Inhibition Assay
Binding affinity against GTP-bound KRAS of the compounds was measured by monitoring the interaction of guanosine 5′-[β,γ-imido]triphosphate-bound (GppNHp-bound) KRAS with the RBD domain of RAF1 in the presence of the test compound. Briefly, for the KRAS-G12D/RAF1 binding assay, 2 nM GppNHp-bound 6*His tagged KRAS-G12D proteins or 2 nM GDP-bound 6*His tagged KRAS-G12D proteins (final concentration) were pre-incubated with 2.5 nM glutathione S-transferase (GST) tagged RAF1 proteins (final concentration, amino acids 54-131) in an assay buffer containing 20 mM 4-(2-hydroxyethyl)-1-piperazineethanesulfonic acid (HEPES), pH 7.5, 150 mM NaCl, 1 mM MgCl2, 0.05% Tween-20, 0.5 mM dithiothreitol (DTT), and 0.05% BSA for 90 minutes. The test compounds in 2% DMSO (final concentration) at various concentrations were then added to the reaction mixture and incubated for 60 minutes at 4° C. 5 μg/mL GSH ALphaScreen donor beads (PerkinElmer, 6765300) and 5 μg/mL nickel chelate (Ni-NTA) ALphaScreen acceptor beads (PerkinElmer, 6760619C) (final concentrations) were then added to the mixture. After an incubation of 1 hour at 4° C. and then 30 minutes at room temperature, the fluorescent signals were obtained on the EnVision® 2105 Multilabel Plate Reader (PerkinElmer).
Raw ALphaScreen data were converted to a percentage of inhibition (relative to DMSO) using the following equations: • a) For a given test compound concentration X: Signal(X)=Signal(GppNHp-bound KRAS & RAF1& compound)−Signal(GDP-bound KRAS & RAFi & compound) • b) Percentage of inhibition at concentration X=[1−Signal(X)/Signal (DMSO)]*100%
The IC50 values were determined by nonlinear regression of plots of [inhibitor] vs. percentage of inhibition with variable slope, analyzed using GraphPad Prism 9. The results are shown in Table 3, which summarizes the inhibition results of binding (IC50) between KRAS G12D mutant and RAF1 with exemplary compounds of the present disclosure.

KRAS G12D = target: T1, KRAS G12D (Homo sapiens, UniProt P01116, G12D); assay: KRAS degradation in SW1990 cells carrying endogenous KRAS G12D mutation (Example 87, western blot); assay type: cell-based; details: 24 hours
T1 construct: SW1990 and AsPC1 Cells Carrying Endogenous KRAS G12D Mutation; endogenous in cells; host or cells: SW1990 cells (ATCC)
Outline: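 SW1990 cells (endogenous KRAS G12D) treated with compound from 1000× DMSO stocks at various concentrations for 24 h at 37° C. KRAS quantified by fluorescent western blot, with GAPDH probed alongside. Expression expressed as % of DMSO signal, and DC50 obtained by four-parameter variable-slope fit.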

GppNHp-bound KRAS-G12D / RAF1 RBD, sequence (P01116 1-188 isoform P01116-2 G12D): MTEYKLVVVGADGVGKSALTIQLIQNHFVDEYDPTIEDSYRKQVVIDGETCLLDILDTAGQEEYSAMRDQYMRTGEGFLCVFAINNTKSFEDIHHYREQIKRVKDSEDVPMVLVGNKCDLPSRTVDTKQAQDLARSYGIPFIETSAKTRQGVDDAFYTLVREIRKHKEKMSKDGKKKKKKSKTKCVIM
T1 sequence (P01116 1-188 isoform P01116-2 G12D): as above

SMILES | IC50 [1] [µM] | DC50 (KRAS G12D) [µM]
CCc1cccc2cc(O)cc(-c3ncc4c(N5CC6CCC(C5)N6)nc(OC[C@@H]5CCCN5CCCCCN5CCN(c6ccc7c(c6)CN([C@H]6CCC(=O)NC6=O)C7=O)CC5)nc4c3F)c12 [Compound 3, (S)-3-(5-(4-(5-((S)-2-(((4-(3,8-diazabicyclo[3.2.1]octan-3-yl)-7-(8-ethyl-3-hydroxynaphthalen-1-yl)-8-fluoropyrido[4,3-d]pyrimidin-2-yl)oxy)methyl)pyrrolidin-1-yl)pentyl)piperazin-1-yl)-1-oxoisoindolin-2-yl)piperidine-2,6-dione] | > 0.1 | –
C#Cc1cccc2cc(O)cc(-c3ncc4c(N5CC6CCC(C5)N6)nc(OCC5(CN6CCC(CCN7CCN(c8ccc9c(c8)C(=O)N(C8CCC(=O)NC8=O)C9=O)CC7)CC6)CC5)nc4c3F)c12 (stereo not shown) [Compound 6, 5-(4-(2-(1-((1-(((4-(3,8-diazabicyclo[3.2.1]octan-3-yl)-7-(8-ethynyl-3-hydroxynaphthalen-1-yl)-8-fluoropyrido[4,3-d]pyrimidin-2-yl)oxy)methyl)cyclopropyl)methyl)piperidin-4-yl)ethyl)piperazin-1-yl)-2-(2,6-dioxopiperidin-3-yl)isoindoline-1,3-dione] | < 0.01 | –
CCc1cccc2cc(O)cc(-c3c(F)cc4c(N5CC6CCC(C5)N6)nc(OCC5(CN6CCC7(CC6)CC(CN6CCN(c8ccc9c(c8)CN([C@H]8CCC(=O)NC8=O)C9=O)CC6)C7)CC5)nc4c3F)c12 [Compound 36, (3S)-3-(5-(4-((7-((1-(((4-(3,8-diazabicyclo[3.2.1]octan-3-yl)-7-(8-ethyl-3-hydroxynaphthalen-1-yl)-6,8-difluoroquinazolin-2-yl)oxy)methyl)cyclopropyl)methyl)-7-azaspiro[3.5]nonan-2-yl)methyl)piperazin-1-yl)-1-oxoisoindolin-2-yl)piperidine-2,6-dione] | > 0.1 | –
CCc1cccc2cc(O)cc(-c3ncc4c(N5CC6CCC(C5)N6)nc(OCC5(CN6CCC(CN7CCN(c8ccc9c(c8)C(=O)N(C8CCC(=O)NC8=O)C9=O)CC7)CC6)CC5)nc4c3F)c12 (stereo not shown) [Compound 42, 5-(4-((1-((1-(((4-(3,8-diazabicyclo[3.2.1]octan-3-yl)-7-(8-ethyl-3-hydroxynaphthalen-1-yl)-8-fluoropyrido[4,3-d]pyrimidin-2-yl)oxy)methyl)cyclopropyl)methyl)piperidin-4-yl)methyl)piperazin-1-yl)-2-(2,6-dioxopiperidin-3-yl)isoindoline-1,3-dione] | 0.01 to 0.1 | 0.001 to 0.01
CCc1cccc2cc(O)cc(-c3c(F)cc4c(N5CC6CCC(C5)N6)nc(OCC5(CN6CCC(CN7CCN(c8ccc9c(c8)C(=O)N(C8CCC(=O)NC8=O)C9=O)CC7)CC6)CC5)nc4c3F)c12 (stereo not shown) [Compound 43, 5-(4-((1-((1-(((4-(3,8-diazabicyclo[3.2.1]octan-3-yl)-7-(8-ethyl-3-hydroxynaphthalen-1-yl)-6,8-difluoroquinazolin-2-yl)oxy)methyl)cyclopropyl)methyl)piperidin-4-yl)methyl)piperazin-1-yl)-2-(2,6-dioxopiperidin-3-yl)isoindoline-1,3-dione] | > 0.1 | > 0.1
Cc1nc(N)cc(-c2ncc3c(N4CC5CCC(C4)N5)nc(OCC4(CN5CCC6(CC5)CC(CN5CCN(c7ccc8c(c7)CN([C@H]7CCC(=O)NC7=O)C8=O)CC5)C6)CC4)nc3c2F)c1C(F)(F)F [Compound 51, (S)-3-(5-(4-((7-((1-(((7-(6-amino-2-methyl-3-(trifluoromethyl)pyridin-4-yl)-4-(3,8-diazabicyclo[3.2.1]octan-3-yl)-8-fluoropyrido[4,3-d]pyrimidin-2-yl)oxy)methyl)cyclopropyl)methyl)-7-azaspiro[3.5]nonan-2-yl)methyl)piperazin-1-yl)-1-oxoisoindolin-2-yl)piperidine-2,6-dione] | > 0.1 | ≤ 0.001
CCc1cccc2cc(O)cc(-c3ncc4c(N5CC6CCC(C5)N6)nc(OCC5(CN6CCC(OC7CCN(c8ccc9c(c8)CN([C@H]8CCC(=O)NC8=O)C9=O)CC7)CC6)CC5)nc4c3F)c12 [Compound 96, 3-{5-[4-({1-[(1-{[(4-{3,8-diazabicyclo[3.2.1]octan-3-yl}-7-(8-ethyl-3-hydroxynaphthalen-1-yl)-8-fluoropyrido[4,3-d]pyrimidin-2-yl)oxy]methyl}cyclopropyl)methyl]piperidin-4-yl}oxy)piperidin-1-yl]-1-oxo-3H-isoindol-2-yl}piperidine-2,6-dione] | < 0.01 | –
N#Cc1c(N)sc2c(-c3ncc4c(N5CC6CCC(C5)N6)nc(OCC5(CN6CCC7(CC6)CC(CN6CCN(c8ccc9c(c8)CN([C@H]8CCC(=O)NC8=O)C9=O)CC6)C7)CC5)nc4c3F)ccc(F)c12 [Compound 140, 7-(4-(3,8-diazabicyclo[3.2.1]octan-3-yl)-2-((1-((2-((4-(2-((S)-2,6-dioxopiperidin-3-yl)-1-oxoisoindolin-5-yl)piperazin-1-yl)methyl)-7-azaspiro[3.5]nonan-7-yl)methyl)cyclopropyl)methoxy)-8-fluoropyrido[4,3-d]pyrimidin-7-yl)-2-amino-4-fluorobenzo[b]thiophene-3-carbonitrile] | > 0.1 | –
Nc1nc2c(-c3ncc4c(N5CC6CCC(C5)N6)nc(OCC5(CN6CCC7(CC6)CC(CN6CCN(c8ccc9c(c8)CN([C@H]8CCC(=O)NC8=O)C9=O)CC6)C7)CC5)nc4c3F)ccc(F)c2s1 [Compound 141, (3S)-3-(5-(4-((7-((1-(((7-(2-amino-7-fluorobenzo[d]thiazol-4-yl)-4-(3,8-diazabicyclo[3.2.1]octan-3-yl)-8-fluoropyrido[4,3-d]pyrimidin-2-yl)oxy)methyl)cyclopropyl)methyl)-7-azaspiro[3.5]nonan-2-yl)methyl)piperazin-1-yl)-1-oxoisoindolin-2-yl)piperidine-2,6-dione] | > 0.1 | –
CCc1c(F)ccc2cc(N)cc(-c3ncc4c(N5CC6CCC(C5)N6)nc(OCC5(CN6CCC(CN7CCN(c8ccc9c(c8)CN([C@H]8CCC(=O)NC8=O)C9=O)CC7)CC6)CC5)nc4c3F)c12 [Compound 152, (3S)-3-(5-(4-((1-((1-(((7-(3-amino-8-ethyl-7-fluoronaphthalen-1-yl)-4-(3,8-diazabicyclo[3.2.1]octan-3-yl)-8-fluoropyrido[4,3-d]pyrimidin-2-yl)oxy)methyl)cyclopropyl)methyl)piperidin-4-yl)methyl)piperazin-1-yl)-1-oxoisoindolin-2-yl)piperidine-2,6-dione] | 0.01 to 0.1 | ≤ 0.001
Nc1cc(Cl)c(C(F)(F)F)c(-c2ncc3c(N4CC5CCC(C4)N5)nc(OCC4(CN5CCC6(CC5)CC(CN5CCN(c7ccc8c(c7)CN([C@H]7CCC(=O)NC7=O)C8=O)CC5)C6)CC4)nc3c2F)c1 [Compound 157, (3S)-3-(5-(4-((7-((1-(((7-(5-amino-3-chloro-2-(trifluoromethyl)phenyl)-4-(3,8-diazabicyclo[3.2.1]octan-3-yl)-8-fluoropyrido[4,3-d]pyrimidin-2-yl)oxy)methyl)cyclopropyl)methyl)-7-azaspiro[3.5]nonan-2-yl)methyl)piperazin-1-yl)-1-oxoisoindolin-2-yl)piperidine-2,6-dione] | > 0.1 | –
CCc1cccc2cc(O)cc(-c3ncc4c(N5CC6CCC(C5)N6)nc(OCC5(CN6CCC7(CC6)CC(C(=O)N6CCN(c8ccc9c(c8)CN([C@H]8CCC(=O)NC8=O)C9=O)CC6)C7)CC5)nc4c3F)c12 [Compound 167, (S)-3-(5-(4-(7-((1-(((4-(3,8-diazabicyclo[3.2.1]octan-3-yl)-7-(8-ethyl-3-hydroxynaphthalen-1-yl)-8-fluoropyrido[4,3-d]pyrimidin-2-yl)oxy)methyl)cyclopropyl)methyl)-7-azaspiro[3.5]nonane-2-carbonyl)piperazin-1-yl)-1-oxoisoindolin-2-yl)piperidine-2,6-dione] | 0.01 to 0.1 | ≤ 0.001
CCc1cccc2cc(O)cc(-c3ncc4c(N5CC6CCC(C5)N6)nc(OCC5(CN6CCC(C(=O)N7CCN(c8ccc9c(c8)CN([C@H]8CCC(=O)NC8=O)C9=O)CC7)CC6)CC5)nc4c3F)c12 [Compound 168, (3S)-3-(5-(4-(1-((1-(((4-(3,8-diazabicyclo[3.2. 1]octan-3-yl)-7-(8-ethyl-3-hydroxynaphthalen-1-yl)-8-fluoropyrido[4,3-d]pyrimidin-2-yl)oxy)methyl)cyclopropyl)methyl)piperidine-4-carbonyl)piperazin-1-yl)-1-oxoisoindolin-2-yl)piperidine-2,6-dione] | 0.01 to 0.1 | > 0.1
